# Assay results as given in patent US20240000814A1, “TREATING ALCOHOL USE DISORDER USING PSILOCYBIN” (New York University, priority 2022, published 2024).
# Several values for one entry are separate records, joined by “and”; a condition that tells them apart may be missing. Equal values may be shown once.
# Columns and labels:
# [1] = tested on: AUD patients; assay: Double-blind randomized trial of psilocybin-assisted treatment of AUD: drinking outcomes by timeline followback; type: in vivo, human; settings: for % of Heavy drinking days (PHDD), mean: 32-week double-blind follow-up (weeks 5-36) after first dose, oral psilocybin 25 mg/70 kg then 25-40 mg/70 kg or diphenhydramine 50 mg then 50-100 mg at weeks 4 and 8, with psychotherapy; for Abstinence, NNT / Abstinence, OR / No heavy drinking, NNT / No heavy drinking, OR / WHO risk level Decrease 1, NNT / WHO risk level Decrease 1, OR / WHO risk level Decrease 2, NNT / WHO risk level Decrease 2, OR / WHO risk level Decrease 3, NNT / WHO risk level Decrease 3, OR: psilocybin vs diphenhydramine
# Description: Design: In this double-blind trial, participants were offered 12 weeks of manualized psychotherapy and were randomly assigned to receive psilocybin vs. diphenhydramine during two day-long medication sessions at week 4 and 8. Outcomes were assessed over the 32-week double-blind period following the first dose of study medication.
# Interventions: Study medications were psilocybin 25 mg/70 kg vs. diphenhydramine 50 mg (first session) and psilocybin 25-40 mg/70 kg vs. diphenhydramine 50-100 mg (second session). Psychotherapy included motivational enhancement therapy and cognitive-behavioral therapy.
# Qualifying participants were assessed at screening, baseline (week 0), and weeks 4, 5, 8, 9, 12, 24, and 36. They were randomly assigned in a 1:1 ratio to receive either psilocybin or diphenhydramine, administered in two eight-hour sessions at weeks 4 and 8. All participants who completed the double-blind observation period (weeks 5-36) and still met safety criteria were offered an open-label psilocybin session at week 38, including four additional psychotherapy sessions and assessment for an additional 18 weeks. Participants received up to a total of $560 for completing assessments in the course of the trial, but were not reimbursed for attending the therapy and medication sessions.
# All participants were offered a total of 12 psychotherapy sessions from a team of two therapists including a licensed psychiatrist: 4 before the first medication session, 4 between the first and second medication sessions, and 4 in the month following the second medication session. The psychotherapy, described in detail in a separate publication,^41 included motivational interviewing and cognitive behavioral therapy for AUD as well as material designed to help the participants to manage and make use of the psychoactive effects of the study medication.
# Study medication was taken orally in a single opaque capsule of unvarying appearance and weight. Psilocybin doses were weight-based to control for participant body weight, which ranged from 49.0 to 116.1 (mean=78.3, SD=15.6) kg. Doses for the first session were psilocybin 25 mg/70 kg or diphenhydramine 50 mg. Participants received an increased dose in the second session if there were no dose-limiting adverse events and they agreed to the increase. The increased dose of psilocybin was 30 mg/70 kg if the participant's total score on the Pahnke-Richards Mystical Experience Questionnaire (MEQ)^42 was ≥0.6 in the first session (indicating a robust subjective response to the 25 mg/70 kg dose), or 40 mg/70 kg if the MEQ total score in the first session was <0.6. The increased dose of diphenhydramine was 100 mg, regardless of subjective response.
# Study medication was administered at approximately 9 AM, after which participants were required to stay in the session room with the therapists for at least 8 hours (except for bathroom breaks). During the session, participants were encouraged to lie on a couch wearing eyeshades and headphones providing a standardized playlist of music. Medications were available in the session room to treat hypertension, severe anxiety, or psychotic symptoms.
# The pre-specified primary drinking outcome was the percentage of heavy drinking days (PH DD) during […], assessed at weeks 8, 12, 24, and 36 using the timeline followback, a reliable and valid calendar-based method which is the gold standard outcome for AUD clinical trials.^43-47 Secondary outcomes included percent drinking days (PDD), average drinks per day (DPD), and dichotomous outcomes: abstinence, lack of heavy drinking days, and reduction in World Health Organization risk level^48 by one, two, or three levels. Hair or fingernail samples were collected at week 24 and assayed for ethylglucuronide (EtG) concentration to confirm self-reported abstinence. The Short Index of Problems (SIP-2R)^49 was used to assess drinking-related problems at baseline and weeks 12, 24, and 36. […]
# [2] = tested on: AUD patients; assay: Subjective effects of study medication, Mystical Experience Questionnaire (MEQ); type: in vivo, human
# Description: Subjective effects of psilocybin vs. diphenhydramine were assessed using the States of Consciousness Questionnaire,^42 containing the 43-item Mystical Experience Questionnaire (MEQ), completed immediately after each medication session.
# MEQ scores for the first and second medication sessions were computed and contrasted by group (psilocybin vs. diphenhydramine) using t-tests for independent samples.
# [3] = tested on: AUD patients; assay: Safety: blood pressure, heart rate and adverse events in the trial; type: in vivo, human
# Description: Blood pressure and heart rate were assessed at 30- to 60-minute intervals during the first 6 hours of each medication session. Adverse events were solicited at each post-screening assessment.
# Blood pressure and heart rate treatment contrasts were based on MMRM with fixed, categorical effects of treatment and assessment, a treatment-by-assessment interaction, and a fixed covariate (value of each outcome prior to drug administration). All adverse events occurring after informed consent were MedDRA-coded and tabulated, and prevalence within treatment groups (proportion of participants affected) was compared using Fisher's exact tests.
# [4] = tested on: AUD patients; assay: Drinking-related problems, Short Index of Problems (SIP-2R); type: in vivo, human; settings: week 36
# From the text: The pre-specified primary drinking outcome was the percentage of heavy drinking days (PH DD) during […], assessed at weeks 8, 12, 24, and 36 using the timeline followback, a reliable and valid calendar-based method which is the gold standard outcome for AUD clinical trials.^43-47 Secondary outcomes included percent drinking days (PDD), average drinks per day (DPD), and dichotomous outcomes: abstinence, lack of heavy drinking days, and reduction in World Health Organization risk level^48 by one, two, or three levels. Hair or fingernail samples were collected at week 24 and assayed for ethylglucuronide (EtG) concentration to confirm self-reported abstinence. The Short Index of Problems (SIP-2R)^49 was used to assess drinking-related problems at baseline and weeks 12, 24, and 36.
# Treatment contrasts for dichotomous outcomes were obtained using Chi-squared statistics. Effects of treatment on problems related to drinking were compared using univariate mixed models for repeated measures (MMRM) and generalized linear models. Hedges'g was computed as a measure of effect size for between- and within-group differences on continuous outcomes, and odds ratios were computed for dichotomous outcomes. No correction was made for multiple comparisons, so analyses of secondary outcomes should be considered exploratory.
# [5] = tested on: alcohol-dependent participants; settings: psilocybin 21-28 mg/70 kg, open-label; cited from earlier work
# [6] = 32-week double-blind follow-up (weeks 5-36)
# [7] = 32 weeks following the first administration of study medication
# [8] = treatment-emergent, within 48 hours of study drug administration
compound,measurement,setting,value
"CN(C)CCc1c[nH]c2cccc(OP(=O)(O)O)c12 [Psilocybin, [3-[2-(dirnethylamino)ethyl]-1H-indo1-4-yl] dihydrogen phosphate]","% of Drinking days, between-group Hedges g",[1]; 32-week double-blind follow-up,0.4
same,"% of Drinking days, between-group mean difference (diphenhydramine-psilocybin)",[1]; 32-week double-blind follow-up,13.44%
same,"Drinks per day, between-group Hedges g",[1]; 32-week double-blind follow-up,0.54
same,"Drinks per day, between-group mean difference (diphenhydramine-psilocybin)",[1]; 32-week double-blind follow-up,1.09 Drinks per day
same,"% of Drinking days (PDD), mean",[1]; [6],29.39%
same,"% of Heavy drinking days, between-group mean difference (diphenhydramine-psilocybin)",[1]; [6],13.86%
same,"Drinks per day (DPD), mean",[1]; [6],1.17 Drinks per day
same,"% of Heavy drinking days (PHDD), mean",[1],9.71%
same,"% of Heavy drinking days (PHDD), mean",[1]; listed as psilocybin,9.7%
same,"% of Heavy drinking days, between-group mean difference (diphenhydramine-psilocybin)","[1]; 32-week double-blind follow-up (weeks 5-36), listed as psilocybin",13.86% and 13.9%
same,"% of Heavy drinking days, between-group Hedges g","[1]; 32-week double-blind follow-up, positive = lower mean in psilocybin group",0.52
same,PHDD of psilocybin-treated participants as percent of that in the diphenhydramine-treated group,[1]; 32 weeks of double-blind observation,41%
same,"Abstinence, % of participants",[1]; Weeks 5-36,22.9%
same,"Abstinence, No. of participants",[1]; Weeks 5-36,11
same,"No heavy drinking, % of participants",[1]; Weeks 5-36,33.3%
same,"No heavy drinking, No. of participants",[1]; Weeks 5-36,16
same,"WHO risk level Decrease 1, % of participants",[1]; Weeks 5-36,83.3%
same,"WHO risk level Decrease 2, % of participants",[1]; Weeks 5-36,60.4%
same,"WHO risk level Decrease 2, No. of participants",[1]; Weeks 5-36,29
same,"WHO risk level Decrease 3, % of participants",[1]; Weeks 5-36,29.2%
same,"WHO risk level Decrease 3, No. of participants",[1]; Weeks 5-36,14
same,"Abstinence, NNT",[1]; Weeks 5-36,7.1
same,"Abstinence, OR",[1]; Weeks 5-36,3.05
same,"No heavy drinking, NNT",[1]; Weeks 5-36,4.5
same,"No heavy drinking, OR",[1]; Weeks 5-36,4
same,"WHO risk level Decrease 1, NNT",[1]; Weeks 5-36,8.2
same,"WHO risk level Decrease 1, OR",[1]; Weeks 5-36,2.03
same,"WHO risk level Decrease 2, NNT",[1]; Weeks 5-36,4.9
same,"WHO risk level Decrease 2, OR",[1]; Weeks 5-36,2.29
same,"WHO risk level Decrease 3, NNT",[1]; Weeks 5-36,6.3
same,"WHO risk level Decrease 3, OR",[1]; Weeks 5-36,2.68
same,"WHO risk level Decrease 1, No. of participants","[1]; Weeks 5-36, relative to 12 weeks prior to screening",40
same,"Abstinence, % of participants",[1]; Weeks 33-36,47.9%
same,"Abstinence, No. of participants",[1]; Weeks 33-36,23
same,"No heavy drinking, % of participants",[1]; Weeks 33-36,62.5%
same,"No heavy drinking, No. of participants",[1]; Weeks 33-36,30
same,"WHO risk level Decrease 1, % of participants",[1]; Weeks 33-36,89.6%
same,"WHO risk level Decrease 1, No. of participants",[1]; Weeks 33-36,43
same,"WHO risk level Decrease 2, % of participants",[1]; Weeks 33-36,60.4%
same,"WHO risk level Decrease 2, No. of participants",[1]; Weeks 33-36,29
same,"WHO risk level Decrease 3, % of participants",[1]; Weeks 33-36,37.5%
same,"WHO risk level Decrease 3, No. of participants",[1]; Weeks 33-36,18
same,"Abstinence, NNT",[1]; Weeks 33-36,4.3
same,"Abstinence, OR",[1]; Weeks 33-36,2.84
same,"No heavy drinking, NNT",[1]; Weeks 33-36,4.4
same,"No heavy drinking, OR",[1]; Weeks 33-36,2.5
same,"WHO risk level Decrease 1, NNT",[1]; Weeks 33-36,4
same,"WHO risk level Decrease 1, OR",[1]; Weeks 33-36,4.74
same,"WHO risk level Decrease 2, NNT",[1]; Weeks 33-36,4.9
same,"WHO risk level Decrease 2, OR",[1]; Weeks 33-36,2.29
same,"WHO risk level Decrease 3, NNT",[1]; Weeks 33-36,5.1
same,"WHO risk level Decrease 3, OR",[1]; Weeks 33-36,2.78
same,Mean MEQ score,"[2]; Session 1, psilocybin 25 mg/70 kg or diphenhydramine 50 mg",0.59 (SD=0.24)
same,Mean MEQ score,"[2]; Session 2, psilocybin 25-40 mg/70 kg or diphenhydramine 50-100 mg",0.64 (SD=0.21)
same,"Adverse events reported, number",[3]; [7],119
same,Serious adverse events,[3]; [7],no serious adverse events
same,Time by which blood pressure was no longer significantly elevated,[3]; after drug administration,≤ 360 min
same,Time until which heart rate was higher,[3]; after drug administration,approximately 300 minutes
same,Anxiety and nausea during administration sessions,[3]; compared with diphenhydramine,reported more frequently
same,Heart rate relative to diphenhydramine group,[3]; during medication sessions,higher
same,Systolic and diastolic blood pressure relative to diphenhydramine,[3]; during medication sessions,increased
same,Participants reporting passive suicidal ideation during a medication session,"[3]; for 15 minutes, resolved without sequelae",One
same,Persistent disturbances suggestive of psychosis or hallucinogen persisting perception disorder,[3]; in vivo,no persistent disturbances
same,Severity of adverse events associated with administration,[3]; in vivo,mostly mild and self-limiting
same,Participants given diazepam 10 mg by mouth for anxiety,[3]; second medication session,Two
same,"Headaches, participants affected / treated",[3]; [8],21/48
same,"Headaches, percent of participants",[3]; [8],43.8%
same,"Total Problems score, between-group Hedges' g",[4],0.67
same,"Total Problems score, between-group mean difference",[4],6.41
same,Tolerability,[5],well tolerated
